Assay: Radioactive metabolites in plasma, urine and feces after single oral dose of [14C] compound (I) to monkeys
Type: in vivo, cynomolgus monkey
Conditions: for % Distribution of radioactive metabolites in pooled plasma, Monkey (4 h): oral 10 mg/kg [14C] compound (I), plasma 4 h; for Metabolites in Feces (0-168 hr), Monkey, % Dose / Metabolites in Feces (0-168 hr), Monkey, % Rad / Metabolites in Urine (0-168 hr), Monkey, % Dose / Metabolites in Urine (0-168 hr), Monkey, % Rad: oral 10 mg/kg; for Metabolites in Feces (0-168 hr), Monkey, % Dose / Metabolites in Feces (0-168 hr), Monkey, % Rad: pooled fecal extracts 0-168 hr; for Metabolites in Urine (0-168 hr), Monkey, % Dose / Metabolites in Urine (0-168 hr), Monkey, % Rad: pooled urine 0-168 hr
Description: A separate bile-duct cannulated (BDC) monkey study was also conducted.
Plasma samples were segregated by collection time and equal volumes of individual plasma samples at a given time point were combined for biotransformation profiling.
The C-14 label was on the carbon-2 of the thiazole ring.
HPLC was performed on an Agilent 1100™ system equipped with binary pumps, autoinjector, and a column heater. A Phenomenex Synergy Polar-RP® column (4.6×250 mm, 5 micron) was used for metabolite separation. All HPLC analyses were performed at 1 mL/min flow rate at 35° C. The HPLC mobile phase consisted of (A) water with 0.1% formic acid and (B) acetonitrile with 0.1% formic acid.
Each fraction of column eluent was evaporated to dryness on a Savant Speed-Vac (Savant Instruments Inc., Holbrook, N.Y.) and counted for radioactivity with a Packard Top Count® microplate scintillation analyzer (Packard Biosciences, Downers Grove, Ill.).
The volumes of pooled plasma processed for HPLC analysis for rat, monkey and human ranged between 1.5 and 8.0 mL. Pooled plasma samples were extracted with methanol/acetonitrile (1:1) at a ratio of 2 volumes solvent to 1 volume of plasma. The mixtures were vortex mixed, sonicated for 5 min, and centrifuged at 3500 rpm for 10 min. The supernatants were transferred into new tubes. The remaining pellets were extracted two more times with 3 mL of methanol/acetonitrile (1:1). The supernatants were combined and evaporated to dryness in a Savant Speed-Vac (Savant Instruments, Inc., Holbrook, N.Y.). The residue was reconstituted into 0.35 to 0.45 mL of 30% acetonitrile in water, vortex mixed and centrifuged at 13000 rpm for 5 min (American Scientific Products Biofuge A centrifuge, Heraeus Sepatech GmbH, Germany). The supernatant was injected onto the HPLC for profiling. Aliquots of the reconstituted samples (30 μl) were also counted on the liquid scintillation counter (LSC) to determine the recovery of radioactivity.
The pooled monkey and human urine samples (3-5 mL) were extracted with 2 volumes of acetonitrile/acetone (1:1). The mixtures were vortex mixed, sonicated and centrifuged at 3500 rpm for 10 min. The supernatants were evaporated to dryness. The residue was suspended in 0.3-0.5 mL of 30% acetonitrile in water and centrifuged at 13000 rpm for 5 min. Aliquots of the supernatants were injected onto the HPLC or analyzed by LSC for radioactivity recovery. Pooled urine samples from BDC monkeys and rats were centrifuged at 13000 rpm for 10 min and injected onto the HPLC for profiling without further treatment.
The amount of fecal homogenate used for analysis was 0.20, 0.19 and 0.51 g for rat, monkey and human, respectively. Each pooled fecal homogenate was extracted by addition of 3 volumes of acetonitrile/methanol (1:1) to 1 volume of fecal homogenate and mixed on a vortex mixer. The mixture was sonicated for 5 min and then centrifuged at 3000 rpm for 10 min. The supernatants were removed and saved. The extraction was repeated two additional times and the supernatants were combined and evaporated to dryness on a Savant Speed-Vac. […] An aliquot of the supernatant was injected onto the HPLC or analyzed by LSC for radioactivity recovery.
The LC/MS system used for analysis of plasma, urine, bile, and fecal samples consisted of an Agilent 1100™ HPLC system connected to a Finnigan LCQ-DecaXP mass spectrometer. Samples were analyzed using positive electrospray ionization. The capillary temperature used for analysis was 320° C., and the nitrogen gas flow rate, spray current, and voltages were adjusted to give maximum sensitivity. The HPLC conditions were described in section 3.3.1.
Counts per min (CPM) were determined on a Packard TopCount NXT microplate scintillation and luminescence counter. For each injection, the average CPM value (2-4 CPM) obtained from fractions between 2-3 min (column void) in the chromatogram was subtracted from the CPM value of each fraction.

% Distribution of radioactive metabolites in pooled plasma, Monkey (4 h) [%]	Metabolites in Feces (0-168 hr), Monkey, % Dose [%]	Metabolites in Feces (0-168 hr), Monkey, % Rad [%]	Metabolites in Urine (0-168 hr), Monkey, % Dose [%]	Metabolites in Urine (0-168 hr), Monkey, % Rad [%]	SMILES
2.7	14.0	18.2	0.06	2.2	Cc1nc(Nc2ncc(C(=O)Nc3c(C)cccc3Cl)s2)cc(N2CCN(CC(=O)O)CC2)n1 [M6 (IV), 2-(4-(6-(5-((2-Chloro-6-methylphenyl)carbamoyl)thiazol-2-ylamino)-2-methylpyrimidin-4-yl)piperazin-1-yl)acetic acid]
2.8	11.7	15.2	0.02	0.6	Cc1nc(Nc2ncc(C(=O)Nc3c(C)cc(O)cc3Cl)s2)cc(N2CCN(CCO)CC2)n1 [M20 (V)]
32.1	24.7	32.2	0.6	21.2	Cc1nc(Nc2ncc(C(=O)Nc3c(C)cccc3Cl)s2)cc(N2CCN(CCO)CC2)n1 [Parent (I), N-(2-Chloro-6-methylphenyl)-2-[[6-[4-(2-hydroxyethyl)-1-piperazinyl]-2-methyl-4-pyrimidinyl]amino]-5-thiazolecarboxamide]

More lines, now with the values behind:

SMILES	% Distribution of radioactive metabolites in pooled plasma, Monkey (4 h) [%]	Metabolites in Feces (0-168 hr), Monkey, % Dose [%]	Metabolites in Feces (0-168 hr), Monkey, % Rad [%]	Metabolites in Urine (0-168 hr), Monkey, % Dose [%]	Metabolites in Urine (0-168 hr), Monkey, % Rad [%]
Cc1nc(Nc2ncc(C(=O)Nc3c(C)cccc3Cl)s2)cc(N2CCNCC2)n1 [M4 (II)]	3.0	2.9	3.8	0.05	1.7
Cc1nc(Nc2ncc(C(=O)Nc3c(C)cccc3Cl)s2)cc(N2CC[N+]([O-])(CCO)CC2)n1 [M5 (III)]	2.6	–	–	1.1	35.8
Cc1nc(Nc2ncc(C(=O)Nc3c(Cl)cccc3CO)s2)cc(N2CCN(CCO)CC2)n1 [M24 (VI), N-(2-chloro-6-(hydroxymethyl)phenyl)-2-(6-(4-(2-hydroxyethyl)piperazin-1-yl)-2-methylpyrimidin-4-ylamino)thiazole-5-carboxamide]	0.7	6.6	8.6	0.06	1.9
